# Counter-ions that a name gives are not always drawn. Like-named read-outs stand apart in the source and are kept apart here.
# Key:
# [1] = molecular target: T1, SARS-CoV-2 PLpro (nsp3 1564–1878) (Severe acute respiratory syndrome coronavirus 2, UniProt P0DTD1); assay: biochemical; design: FRET-quenched peptide (Pro3) cleavage by PLpro, 10 min pre-incubation, slope over 20 min, normalised to no-compound control; conditions: low concentration screen, read-out: % of control remaining
# [2] = molecular target: T1, SARS-CoV-2 PLpro (nsp3 1564–1878); assay: biochemical; design: FRET-quenched peptide (Pro3) cleavage by PLpro, 10 min pre-incubation, slope over 20 min, normalised to no-compound control; conditions: high concentration screen, read-out: % of control remaining
structure (smiles),measurement,setting,value
CC(C)NCC(O)c1ccc(O)c(O)c1 (centres unmarked) [Isoprenaline (hydrochloride)],remaining activity at 1.25 µM,[1]; Well no.=6761,99.4%
same,remaining activity at 3.75 µM,[2]; Well no.=6761,101%
COc1cc(-c2oc3cc(O)cc(O)c3c(=O)c2O)ccc1O [Isorhamnetine],remaining activity at 1.25 µM,[1]; Well no.=3150,99.4%
same,remaining activity at 3.75 µM,[2]; Well no.=3150,99.7%
C[C@@H]1O[C@@H](OC[C@H]2O[C@@H](Oc3cc(O)c4c(=O)cc(-c5ccc(O)cc5)oc4c3)[C@H](O)[C@@H](O)[C@@H]2O)[C@H](O)[C@H](O)[C@H]1O [Isorhoifolin],remaining activity at 1.25 µM,[1]; Well no.=3297,99.4%
same,remaining activity at 3.75 µM,[2]; Well no.=3297,104%
COc1ccc2cc1Oc1ccc(cc1)C[C@H]1c3cc(c(OC)cc3CCN1C)Oc1c(OC)c(OC)cc3c1[C@@H](C2)N(C)CC3 [Isotetrandrine],remaining activity at 1.25 µM,[1]; Well no.=3365,100%
same,remaining activity at 3.75 µM,[2]; Well no.=3365,98.1%
CCC(NC(C)C)C(O)c1ccc(O)c(O)c1 (centres unmarked) [Isotharine mesylate],remaining activity at 1.25 µM,[1]; Well no.=915,104%
same,remaining activity at 3.75 µM,[2]; Well no.=915,104%
CC1=C(/C=C/C(C)=C/C=C/C(C)=C\C(=O)O)C(C)(C)CCC1 [Isotretinoin],remaining activity at 1.25 µM,[1]; Well no.=6303,108%
same,remaining activity at 3.75 µM,[2]; Well no.=6303,108%
CC(C)CC(N)=O [Isovaleramide],remaining activity at 1.25 µM,[1]; Well no.=8346,89.1%
same,remaining activity at 3.75 µM,[2]; Well no.=8346,81.6%
O=c1cc(-c2ccc(O)cc2)oc2cc(O)c([C@@H]3O[C@H](CO)[C@@H](O)[C@H](O)[C@H]3O)c(O)c12 [Isovitexin],remaining activity at 1.25 µM,[1]; Well no.=3301,99.2%
same,remaining activity at 3.75 µM,[2]; Well no.=3301,98.6%
Nc1nc2[nH]c(=O)cnc2c(=O)[nH]1 [Isoxanthopterin],remaining activity at 1.25 µM,[1]; Well no.=1109,96.8%
same,remaining activity at 3.75 µM,[2]; Well no.=1109,100%
Cc1ccc(C(=O)N(CCCN)[C@@H](c2nc3cc(Cl)ccc3c(=O)n2Cc2ccccc2)C(C)C)cc1 [Ispinesib (SB-715992)],remaining activity at 1.25 µM,[1]; Well no.=5243,94.6%
same,remaining activity at 3.75 µM,[2]; Well no.=5243,92.3%
CCn1c(=O)c2c(nc(/C=C/c3ccc(OC)c(OC)c3)n2C)n(CC)c1=O [Istradefylline (KW-6002)],remaining activity at 1.25 µM,[1]; Well no.=5121,106%
same,remaining activity at 3.75 µM,[2]; Well no.=5121,110%
CCn1c(=O)c2c(nc(/C=C/c3ccc(OC)c(OC)c3)n2C)n(CC)c1=O [Istradefylline],remaining activity at 1.25 µM,[1]; Well no.=6903,98.1%
same,remaining activity at 1.25 µM,[1]; Well no.=8461,109%
same,remaining activity at 3.75 µM,[2]; Well no.=6903,99.6%
same,remaining activity at 3.75 µM,[2]; Well no.=8461,101%
COc1ccc(C(=O)NCc2ccc(OCCN(C)C)cc2)cc1OC [Itopride],remaining activity at 1.25 µM,[1]; Well no.=2226,87.9%
same,remaining activity at 3.75 µM,[2]; Well no.=2226,88.2%
COc1cc2c(cc1OC)CC(=O)N(CCCN(C)C[C@H]1Cc3cc(OC)c(OC)cc31)CC2 [Ivabradine (hydrochloride)],remaining activity at 1.25 µM,[1]; Well no.=7625,99.3%
same,remaining activity at 3.75 µM,[2]; Well no.=7625,94.7%
COc1cc2c(cc1OC)CC(=O)N(CCCN(C)C[C@H]1Cc3cc(OC)c(OC)cc31)CC2 [Ivabradine hydrochloride],remaining activity at 1.25 µM,[1]; Well no.=5419,104%
same,remaining activity at 3.75 µM,[2]; Well no.=5419,106%
CC(C)(C)c1cc(C(C)(C)C)c(NC(=O)c2c[nH]c3ccccc3c2=O)cc1O [Ivacaftor (VX-770)],remaining activity at 1.25 µM,[1]; Well no.=5055,105%
same,remaining activity at 3.75 µM,[2]; Well no.=5055,102%
N#Cc1ccnc(N2C(=O)CC[C@H]2C(=O)N(c2cncc(F)c2)[C@H](C(=O)NC2CC(F)(F)C2)c2ccccc2Cl)c1 [Ivosidenib (AG-120)],remaining activity at 1.25 µM,[1]; Well no.=8630,95.1%
same,remaining activity at 3.75 µM,[2]; Well no.=8630,92.7%
C/C(=C\c1csc(C)n1)[C@@H]1C[C@@H]2O[C@]2(C)CCC[C@H](C)[C@H](O)[C@@H](C)C(=O)C(C)(C)[C@@H](O)CC(=O)N1 [Ixabepilone],remaining activity at 1.25 µM,[1]; Well no.=6934,108%
same,remaining activity at 3.75 µM,[2]; Well no.=6934,107%
CC(C)N(CCC(=O)c1ccc2ccccc2c1)Cc1ccccc1 [JAK3 Inhibitor IV],remaining activity at 1.25 µM,[1]; Well no.=2459,94%
same,remaining activity at 3.75 µM,[2]; Well no.=2459,93.9%
CC(C)(C)c1nc2c3cc[nH]c(=O)c3c3cc(F)ccc3c2[nH]1 [JAK Inhibitor I],remaining activity at 1.25 µM,[1]; Well no.=2455,101%
same,remaining activity at 3.75 µM,[2]; Well no.=2455,103%
CC(C)[C@H](N=C(NS(=O)(=O)c1ccc(Cl)cc1)N1C[C@H](c2ccccc2)C(c2ccc(Cl)cc2)=N1)C(N)=O [JD-5037],remaining activity at 1.25 µM,[1]; Well no.=8487,97.2%
same,remaining activity at 3.75 µM,[2]; Well no.=8487,82.1%
CC(C)[C@@H](CN1CC[C@@](C)(c2cccc(O)c2)[C@@H](C)C1)NC(=O)[C@H]1Cc2ccc(O)cc2CN1 [JDTic (dihydrochloride)],remaining activity at 1.25 µM,[1]; Well no.=7139,99.3%
same,remaining activity at 3.75 µM,[2]; Well no.=7139,97%
Cc1ccc2c(c1)C(N1CCN(C)CC1)=Nc1cccnc1N2 [JL-18],remaining activity at 1.25 µM,[1]; Well no.=781,107%
same,remaining activity at 3.75 µM,[2]; Well no.=781,103%
CO[C@H]1CC[C@@H](C(=O)c2ccc3nc4c(cc3c2)CCCO4)CC1 [JNJ16259685],remaining activity at 1.25 µM,[1]; Well no.=6955,100%
same,remaining activity at 3.75 µM,[2]; Well no.=6955,102%
Cn1cc(-c2ccc3nnc(C(F)(F)c4ccc5ncccc5c4)n3n2)cn1 [JNJ38877605],remaining activity at 1.25 µM,[1]; Well no.=2887,101%
same,remaining activity at 3.75 µM,[2]; Well no.=2887,102%
O=C(Nc1ccccc1)N1CCN(c2nc(-c3ccccc3)ns2)CC1 [JNJ 1661010],remaining activity at 1.25 µM,[1]; Well no.=5167,98.1%
same,remaining activity at 3.75 µM,[2]; Well no.=5167,104%
Nc1nc(Nc2ccc(S(N)(=O)=O)cc2)nn1C(=O)c1c(F)cccc1F [JNJ-7706621],remaining activity at 1.25 µM,[1]; Well no.=8260,91.9%
same,remaining activity at 3.75 µM,[2]; Well no.=8260,92%
CN1CCN(C(=O)c2cc3cc(Cl)ccc3[nH]2)CC1 [JNJ-7777120],remaining activity at 1.25 µM,[1]; Well no.=5217,101%
same,remaining activity at 1.25 µM,[1]; Well no.=6949,103%
same,remaining activity at 3.75 µM,[2]; Well no.=5217,104%
same,remaining activity at 3.75 µM,[2]; Well no.=6949,96%
Cn1cc(CNCC2CCN(c3ncc(C(=O)NO)cn3)CC2)c2ccccc21 [JNJ-26481585],remaining activity at 1.25 µM,[1]; Well no.=5224,98.6%
same,remaining activity at 3.75 µM,[2]; Well no.=5224,98.4%
C[C@H](NC(=O)CNC(=O)c1cccc(Cl)c1)c1ccccc1 [JNJ-63533054],remaining activity at 1.25 µM,[1]; Well no.=8047,98.3%
same,remaining activity at 3.75 µM,[2]; Well no.=8047,102%
N#Cc1c(NC(=O)c2cccc3ccccc23)sc2c1CCCC2 [JNK Inhibitor IX],remaining activity at 1.25 µM,[1]; Well no.=2518,99.9%
same,remaining activity at 3.75 µM,[2]; Well no.=2518,103%
CCOc1nc(NC(=O)Cc2cc(OC)ccc2OC)cc(N)c1C#N [JNK Inhibitor VIII],remaining activity at 1.25 µM,[1]; Well no.=2550,99.5%
same,remaining activity at 3.75 µM,[2]; Well no.=2550,100%
"Cn1nc2c3c(cccc31)C(=O)c1ccccc1-2 [JNK Inhibitor, Negative Control]",remaining activity at 1.25 µM,[1]; Well no.=2514,91%
same,remaining activity at 3.75 µM,[2]; Well no.=2514,92.4%
CCc1ccc(OCc2ccccc2C(=O)Nc2ccc3nc(C)cc(N)c3c2)cc1 [JTC-801],remaining activity at 1.25 µM,[1]; Well no.=5025,98.2%
same,remaining activity at 1.25 µM,[1]; Well no.=7002,95.7%
same,remaining activity at 3.75 µM,[2]; Well no.=5025,98.7%
same,remaining activity at 3.75 µM,[2]; Well no.=7002,91.5%
